Source: ChEMBL document CHEMBL4507305, “Data for DCP probe TP-024” (2021)

Columns and labels:
[1] = biological target: AP2-associated protein kinase 1 (Homo sapiens) (UniProt Q2M2I8); details: Compound concentration 1000.0 nM
[2] = tested on: Tyrosine-protein kinase ABL1 (Homo sapiens), P00519 [M351T]; details: Compound concentration 1000.0 nM
[3] = biological target: Atypical kinase COQ8A, mitochondrial (Homo sapiens) (UniProt Q8NI60); details: Compound concentration 1000.0 nM
[4] = biological target: RAC-gamma serine/threonine-protein kinase (Homo sapiens) (UniProt Q9Y243); details: Compound concentration 1000.0 nM
[5] = tested on: ALK tyrosine kinase receptor (Homo sapiens), Q9UM73 [C1156Y]; details: Compound concentration 1000.0 nM
[6] = tested on: ALK tyrosine kinase receptor (Homo sapiens), Q9UM73 [L1196M]; details: Compound concentration 1000.0 nM
[7] = biological target: NUAK family SNF1-like kinase 1 (Homo sapiens) (UniProt O60285); details: Compound concentration 1000.0 nM
[8] = biological target: Serine/threonine-protein kinase BRSK2 (Homo sapiens) (UniProt Q8IWQ3); details: Compound concentration 1000.0 nM
[9] = biological target: Cyclin-dependent kinase 11B (Homo sapiens) (UniProt P21127); details: Compound concentration 1000.0 nM
[10] = biological target: Cyclin-dependent kinase-like 5 (Homo sapiens) (UniProt O76039); details: Compound concentration 1000.0 nM
[11] = biological target: Serine/threonine-protein kinase Chk1 (Homo sapiens) (UniProt O14757); details: Compound concentration 1000.0 nM
[12] = biological target: Casein kinase I isoform alpha-like (Homo sapiens) (UniProt Q8N752); details: Compound concentration 1000.0 nM
[13] = biological target: Serine/threonine-protein kinase MRCK gamma (Homo sapiens) (UniProt Q6DT37); details: Compound concentration 1000.0 nM
[14] = biological target: Serine/threonine-protein kinase 17B (Homo sapiens) (UniProt O94768); details: Compound concentration 1000.0 nM
[15] = tested on: Epidermal growth factor receptor (Homo sapiens), P00533 [G719C]; details: Compound concentration 1000.0 nM
[16] = tested on: Epidermal growth factor receptor (Homo sapiens), P00533 [L858R]; details: Compound concentration 1000.0 nM
[17] = tested on: Epidermal growth factor receptor (Homo sapiens), P00533 [UNDEFINED MUTATION]; details: Compound concentration 1000.0 nM
[18] = biological target: Mitogen-activated protein kinase 3 (Homo sapiens) (UniProt P27361); details: Compound concentration 1000.0 nM
[19] = biological target: Receptor-type tyrosine-protein kinase FLT3 (Homo sapiens) (UniProt P36888); details: Compound concentration 1000.0 nM
[20] = tested on: Receptor-type tyrosine-protein kinase FLT3 (Homo sapiens), P36888 [D835H]; details: Compound concentration 1000.0 nM
[21] = tested on: Receptor-type tyrosine-protein kinase FLT3 (Homo sapiens), P36888 [D835V]; details: Compound concentration 1000.0 nM
[22] = tested on: Receptor-type tyrosine-protein kinase FLT3 (Homo sapiens), P36888 [UNDEFINED MUTATION]; details: Compound concentration 1000.0 nM
[23] = biological target: Receptor-type tyrosine-protein kinase FLT3 (Homo sapiens) (UniProt P36888); details: Compound concentration 1000.0 nM; remark: listed apart in the source
[24] = biological target: Homeodomain-interacting protein kinase 2 (Homo sapiens) (UniProt Q9H2X6); details: Compound concentration 1000.0 nM
[25] = biological target: Serine/threonine-protein kinase ICK (Homo sapiens) (UniProt Q9UPZ9); details: Compound concentration 1000.0 nM
[26] = biological target: Mitogen-activated protein kinase 8 (Homo sapiens) (UniProt P45983); details: Compound concentration 1000.0 nM
[27] = tested on: Mast/stem cell growth factor receptor Kit (Homo sapiens), P10721 [D816V]; details: Compound concentration 1000.0 nM
[28] = biological target: Maternal embryonic leucine zipper kinase (Homo sapiens) (UniProt Q14680); details: Compound concentration 1000.0 nM
[29] = biological target: Misshapen-like kinase 1 (Homo sapiens) (UniProt Q8N4C8); details: Compound concentration 1000.0 nM
[30] = biological target: Serine/threonine-protein kinase mTOR (Homo sapiens) (UniProt P42345); details: Compound concentration 1000.0 nM
[31] = biological target: Serine/threonine-protein kinase Nek7 (Homo sapiens) (UniProt Q8TDX7); details: Compound concentration 1000.0 nM
[32] = biological target: Serine/threonine-protein kinase Nek9 (Homo sapiens) (UniProt Q8TD19); details: Compound concentration 1000.0 nM
[33] = biological target: Mitogen-activated protein kinase kinase kinase 14 (Homo sapiens) (UniProt Q99558); details: Compound concentration 1000.0 nM
[34] = biological target: Phosphatidylinositol 4,5-bisphosphate 3-kinase catalytic subunit delta isoform (Homo sapiens) (UniProt O00329); details: Compound concentration 1000.0 nM
[35] = biological target: Serine/threonine-protein kinase D2 (Homo sapiens) (UniProt Q9BZL6); details: Compound concentration 1000.0 nM
[36] = biological target: Serine/threonine-protein kinase SIK1 (Homo sapiens) (UniProt P57059); details: Compound concentration 1000.0 nM
[37] = biological target: Proto-oncogene tyrosine-protein kinase Src (Homo sapiens) (UniProt P12931); details: Compound concentration 1000.0 nM
[38] = biological target: SRSF protein kinase 3 (Homo sapiens) (UniProt Q9UPE1); details: Compound concentration 1000.0 nM
[39] = biological target: Vascular endothelial growth factor receptor 2 (Homo sapiens) (UniProt P35968); details: Compound concentration 1000.0 nM
[40] = biological target: Serine/threonine-protein kinase WNK2 (Homo sapiens) (UniProt Q9Y3S1); details: Compound concentration 1000.0 nM
[41] = biological target: 5-hydroxytryptamine receptor 1D (Homo sapiens) (UniProt P28221); details: Compound concentration 10.0 uM
[42] = biological target: 5-hydroxytryptamine receptor 1E (Homo sapiens) (UniProt P28566); details: Compound concentration 10.0 uM
[43] = biological target: 5-hydroxytryptamine receptor 2B (Homo sapiens) (UniProt P41595); details: Compound concentration 10.0 uM
[44] = biological target: Mu-type opioid receptor (Homo sapiens) (UniProt P35372); details: Compound concentration 10.0 uM
[45] = biological target: Histamine H4 receptor (Homo sapiens) (UniProt Q9H3N8); details: Compound concentration 10.0 uM
Chain of Histamine H4 receptor (Homo sapiens) (Q9H3N8 whole entry): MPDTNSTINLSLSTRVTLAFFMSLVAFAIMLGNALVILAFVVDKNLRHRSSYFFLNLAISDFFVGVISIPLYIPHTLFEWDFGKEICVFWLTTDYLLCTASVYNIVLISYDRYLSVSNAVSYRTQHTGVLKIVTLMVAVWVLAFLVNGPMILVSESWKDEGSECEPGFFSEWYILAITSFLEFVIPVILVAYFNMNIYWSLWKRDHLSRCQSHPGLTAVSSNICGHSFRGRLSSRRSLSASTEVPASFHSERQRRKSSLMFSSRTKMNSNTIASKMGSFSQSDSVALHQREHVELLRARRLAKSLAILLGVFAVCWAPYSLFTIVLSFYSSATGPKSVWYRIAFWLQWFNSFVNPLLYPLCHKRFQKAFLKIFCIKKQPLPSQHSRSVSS

Chain of Cyclin-dependent kinase-like 5 (Homo sapiens) (O76039 whole entry): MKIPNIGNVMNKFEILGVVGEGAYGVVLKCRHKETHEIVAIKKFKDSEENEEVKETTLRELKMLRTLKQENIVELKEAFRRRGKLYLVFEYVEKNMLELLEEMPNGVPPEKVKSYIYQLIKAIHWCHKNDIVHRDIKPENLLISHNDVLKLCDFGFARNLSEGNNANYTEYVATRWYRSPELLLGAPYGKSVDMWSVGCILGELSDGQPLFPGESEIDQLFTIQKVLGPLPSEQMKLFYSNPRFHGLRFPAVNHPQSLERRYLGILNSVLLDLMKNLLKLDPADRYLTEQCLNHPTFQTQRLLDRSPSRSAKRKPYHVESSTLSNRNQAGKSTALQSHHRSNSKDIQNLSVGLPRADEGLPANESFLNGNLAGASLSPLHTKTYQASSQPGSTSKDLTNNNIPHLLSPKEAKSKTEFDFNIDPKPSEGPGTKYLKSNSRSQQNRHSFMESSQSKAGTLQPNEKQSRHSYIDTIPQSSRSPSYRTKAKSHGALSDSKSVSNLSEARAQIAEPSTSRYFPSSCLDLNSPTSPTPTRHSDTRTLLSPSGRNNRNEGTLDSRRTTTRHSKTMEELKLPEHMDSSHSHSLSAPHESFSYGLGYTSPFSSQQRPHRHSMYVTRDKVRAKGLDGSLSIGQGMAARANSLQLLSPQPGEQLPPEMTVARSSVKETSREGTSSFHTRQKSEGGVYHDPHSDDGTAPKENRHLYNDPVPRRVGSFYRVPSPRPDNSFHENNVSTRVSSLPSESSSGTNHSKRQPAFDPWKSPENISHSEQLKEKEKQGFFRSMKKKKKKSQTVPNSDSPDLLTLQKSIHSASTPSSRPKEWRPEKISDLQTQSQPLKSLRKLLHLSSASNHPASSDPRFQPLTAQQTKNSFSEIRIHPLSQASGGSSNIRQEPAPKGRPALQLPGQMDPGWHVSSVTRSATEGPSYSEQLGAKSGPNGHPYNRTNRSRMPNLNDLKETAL
Chain of Serine/threonine-protein kinase MRCK gamma (Homo sapiens) (Q6DT37 whole entry): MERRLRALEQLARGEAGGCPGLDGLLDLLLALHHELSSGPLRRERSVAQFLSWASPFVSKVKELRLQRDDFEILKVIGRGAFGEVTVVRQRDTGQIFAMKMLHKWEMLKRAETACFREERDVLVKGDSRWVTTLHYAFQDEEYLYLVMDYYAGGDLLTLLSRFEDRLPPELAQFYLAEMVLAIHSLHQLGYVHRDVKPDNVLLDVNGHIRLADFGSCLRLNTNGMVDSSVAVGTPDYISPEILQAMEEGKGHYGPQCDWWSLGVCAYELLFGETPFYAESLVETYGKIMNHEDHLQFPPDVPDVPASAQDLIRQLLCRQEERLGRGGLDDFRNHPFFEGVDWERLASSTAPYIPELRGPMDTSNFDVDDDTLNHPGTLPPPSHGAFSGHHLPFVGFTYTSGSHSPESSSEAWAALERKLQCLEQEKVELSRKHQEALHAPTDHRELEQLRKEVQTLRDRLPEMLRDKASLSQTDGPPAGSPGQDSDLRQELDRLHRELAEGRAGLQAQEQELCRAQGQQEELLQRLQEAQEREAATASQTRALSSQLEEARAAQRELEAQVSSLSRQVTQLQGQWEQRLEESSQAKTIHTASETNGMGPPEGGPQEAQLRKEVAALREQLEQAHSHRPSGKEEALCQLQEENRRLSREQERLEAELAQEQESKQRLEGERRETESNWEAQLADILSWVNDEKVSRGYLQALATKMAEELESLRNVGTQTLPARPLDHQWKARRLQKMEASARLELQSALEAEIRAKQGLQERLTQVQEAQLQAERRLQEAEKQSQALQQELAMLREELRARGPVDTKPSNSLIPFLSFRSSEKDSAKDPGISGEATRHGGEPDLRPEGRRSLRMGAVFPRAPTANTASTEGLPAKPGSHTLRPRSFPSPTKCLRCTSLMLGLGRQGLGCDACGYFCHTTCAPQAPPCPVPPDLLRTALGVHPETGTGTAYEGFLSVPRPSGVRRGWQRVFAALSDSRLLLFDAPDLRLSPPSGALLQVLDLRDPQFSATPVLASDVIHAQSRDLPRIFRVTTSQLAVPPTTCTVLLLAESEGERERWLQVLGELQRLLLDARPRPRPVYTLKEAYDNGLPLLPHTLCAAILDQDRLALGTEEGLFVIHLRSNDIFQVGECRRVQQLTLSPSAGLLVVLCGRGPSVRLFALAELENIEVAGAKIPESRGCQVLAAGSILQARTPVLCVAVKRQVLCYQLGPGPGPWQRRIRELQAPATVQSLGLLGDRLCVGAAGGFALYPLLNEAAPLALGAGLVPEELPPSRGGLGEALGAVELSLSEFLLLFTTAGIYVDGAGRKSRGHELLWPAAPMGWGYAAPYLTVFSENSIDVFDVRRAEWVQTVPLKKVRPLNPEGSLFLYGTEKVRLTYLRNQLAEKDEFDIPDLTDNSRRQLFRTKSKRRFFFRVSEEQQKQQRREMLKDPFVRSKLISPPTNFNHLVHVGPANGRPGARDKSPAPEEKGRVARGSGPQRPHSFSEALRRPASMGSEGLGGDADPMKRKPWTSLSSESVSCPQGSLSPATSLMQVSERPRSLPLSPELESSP
Chain of Serine/threonine-protein kinase Chk1 (Homo sapiens) (O14757 whole entry, canonical isoform): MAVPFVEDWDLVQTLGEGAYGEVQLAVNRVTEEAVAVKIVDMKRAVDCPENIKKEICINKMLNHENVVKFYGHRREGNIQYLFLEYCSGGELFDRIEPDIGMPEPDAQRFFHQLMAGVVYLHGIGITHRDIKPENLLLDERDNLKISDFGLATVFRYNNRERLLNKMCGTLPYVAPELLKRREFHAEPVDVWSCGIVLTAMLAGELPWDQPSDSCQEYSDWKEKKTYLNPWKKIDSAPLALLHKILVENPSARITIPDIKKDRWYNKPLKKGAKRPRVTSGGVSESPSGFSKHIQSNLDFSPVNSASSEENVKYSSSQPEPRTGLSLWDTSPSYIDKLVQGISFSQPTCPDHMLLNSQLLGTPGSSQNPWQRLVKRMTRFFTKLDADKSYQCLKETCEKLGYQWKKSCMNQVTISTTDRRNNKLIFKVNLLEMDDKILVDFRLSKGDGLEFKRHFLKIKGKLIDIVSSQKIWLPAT
Chain of RAC-gamma serine/threonine-protein kinase (Homo sapiens) (Q9Y243 whole entry): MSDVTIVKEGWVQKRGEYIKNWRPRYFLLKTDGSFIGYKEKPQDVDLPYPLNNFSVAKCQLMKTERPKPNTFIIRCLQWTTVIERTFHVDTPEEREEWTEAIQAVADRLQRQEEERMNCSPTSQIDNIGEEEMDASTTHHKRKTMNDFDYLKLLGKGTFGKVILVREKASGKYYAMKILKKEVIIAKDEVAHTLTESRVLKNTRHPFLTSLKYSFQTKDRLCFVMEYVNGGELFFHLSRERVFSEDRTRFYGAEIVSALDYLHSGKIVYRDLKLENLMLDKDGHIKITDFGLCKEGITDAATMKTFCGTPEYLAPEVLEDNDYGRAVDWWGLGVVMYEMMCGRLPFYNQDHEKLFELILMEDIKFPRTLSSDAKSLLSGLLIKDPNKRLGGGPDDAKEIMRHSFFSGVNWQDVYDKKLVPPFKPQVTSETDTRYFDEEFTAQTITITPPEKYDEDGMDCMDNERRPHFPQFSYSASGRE
Chain of Serine/threonine-protein kinase BRSK2 (Homo sapiens) (Q8IWQ3 whole entry): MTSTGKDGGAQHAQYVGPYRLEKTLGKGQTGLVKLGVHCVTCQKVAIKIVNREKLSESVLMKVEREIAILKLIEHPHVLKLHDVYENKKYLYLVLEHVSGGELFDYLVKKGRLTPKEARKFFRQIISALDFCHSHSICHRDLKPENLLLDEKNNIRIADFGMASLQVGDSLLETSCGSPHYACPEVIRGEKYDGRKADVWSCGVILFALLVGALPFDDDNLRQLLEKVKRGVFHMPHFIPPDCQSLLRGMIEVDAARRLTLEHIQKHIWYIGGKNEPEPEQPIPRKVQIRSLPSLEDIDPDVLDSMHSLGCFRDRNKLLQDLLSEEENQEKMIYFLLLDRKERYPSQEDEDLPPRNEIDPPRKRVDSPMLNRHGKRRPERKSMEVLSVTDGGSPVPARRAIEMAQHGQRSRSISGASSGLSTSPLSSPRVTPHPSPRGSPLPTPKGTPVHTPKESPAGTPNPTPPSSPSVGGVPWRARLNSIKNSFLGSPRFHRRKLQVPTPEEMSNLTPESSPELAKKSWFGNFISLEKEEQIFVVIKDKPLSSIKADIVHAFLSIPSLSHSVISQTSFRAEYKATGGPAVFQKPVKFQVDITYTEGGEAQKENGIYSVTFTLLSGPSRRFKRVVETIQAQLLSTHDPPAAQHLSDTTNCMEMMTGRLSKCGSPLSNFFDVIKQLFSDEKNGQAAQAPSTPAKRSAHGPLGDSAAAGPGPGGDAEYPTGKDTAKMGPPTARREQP
Chain of Serine/threonine-protein kinase Nek7 (Homo sapiens) (Q8TDX7 whole entry, looked up): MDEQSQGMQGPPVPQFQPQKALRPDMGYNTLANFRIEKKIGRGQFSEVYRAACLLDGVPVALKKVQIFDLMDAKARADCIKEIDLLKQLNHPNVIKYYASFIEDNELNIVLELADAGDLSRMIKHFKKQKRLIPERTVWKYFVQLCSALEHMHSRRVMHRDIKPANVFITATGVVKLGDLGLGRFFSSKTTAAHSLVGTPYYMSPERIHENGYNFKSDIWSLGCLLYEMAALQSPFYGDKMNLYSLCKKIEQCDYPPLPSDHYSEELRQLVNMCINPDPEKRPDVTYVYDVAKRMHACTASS

Cc1nc(Cc2cccc(C(F)(F)F)c2)sc1-c1ccc(C(N)=O)nc1 [TP-024n]
inactive: residual activity [1] 96% | residual activity [2] 100% | residual activity [3] 62% | residual activity [4] 92% | residual activity [5] 68% | residual activity [6] 100% | residual activity [7] 86% | residual activity [8] 72% | residual activity [9] 97% | residual activity [10] 100% | residual activity [11] 100% | residual activity [12] 100% | residual activity [13] 100% | residual activity [14] 79% | residual activity [15] 94% | residual activity [16] 100% | residual activity [17] 100% | residual activity [18] 96% | residual activity [19] 87% | residual activity [20] 100% | residual activity [21] 100% | residual activity [22] 100% | residual activity [23] 93% | residual activity [24] 100% | residual activity [25] 100% | residual activity [26] 90% | residual activity [27] 81% | residual activity [28] 100% | residual activity [29] 92% | residual activity [30] 87% | residual activity [31] 98% | residual activity [32] 100% | residual activity [33] 100% | residual activity [34] 100% | residual activity [35] 76% | residual activity [36] 100% | residual activity [37] 80% | residual activity [38] 100% | residual activity [39] 86% | residual activity [40] 100% | inhibition [41] 8.49% | inhibition [42] 9.13% | inhibition [43] 33.7% | inhibition [44] 5.75% | inhibition [45] 7.74%

Cc1cc(-n2nc(Cc3cc(F)cc(C(F)(F)F)c3)nc2C)ccc1C(N)=O [TP-024]
inactive: residual activity [1] 100% | residual activity [2] 100% | residual activity [3] 100% | residual activity [4] 100% | residual activity [5] 100% | residual activity [6] 100% | residual activity [7] 100% | residual activity [8] 77% | residual activity [9] 100% | residual activity [10] 100% | residual activity [11] 100% | residual activity [12] 100% | residual activity [13] 100% | residual activity [14] 81% | residual activity [15] 100% | residual activity [16] 100% | residual activity [17] 100% | residual activity [18] 100% | residual activity [19] 100% | residual activity [20] 100% | residual activity [21] 100% | residual activity [22] 100% | residual activity [23] 100% | residual activity [24] 100% | residual activity [25] 100% | residual activity [26] 78% | residual activity [27] 100% | residual activity [28] 100% | residual activity [29] 93% | residual activity [30] 78% | residual activity [31] 97% | residual activity [32] 100% | residual activity [33] 100% | residual activity [34] 52% | residual activity [35] 94% | residual activity [36] 100% | residual activity [37] 95% | residual activity [38] 100% | residual activity [39] 100% | residual activity [40] 100% | inhibition [41] 12.5% | inhibition [42] 10.5% | inhibition [43] -2.51% | inhibition [44] 0.37% | inhibition [45] 1.73%
